Source: a flash point compilation (Sun et al. 2020)

Row | SMILES | flash point [°C]
1 | CCC(C)CCC(=O)O (stereo not drawn) [4-methylhexanoicacid] | 103
2 | CCCCCC(C)CCC (stereo not drawn) [4-methylnonane] | 38
3 | CCCCC(C)CCC (stereo not drawn) [4-methyloctane] | 22
4 | CC(C)CCC(=O)O [4-methylpentanoicacid] | 97
5 | C=Cc1ccc(C)cc1 [4-methylstyrene] | 46
6 | CCCCCC(=O)CCC [4-nonanone] | 62
7 | CCCC#CCCCC [4-nonyne] | 35
8 | Cc1ccncc1 [4-picoline] | 38
9 | CSCCC=O [4-thiapentanal] | 61
10 | CCCCCCCC(=O)CCC [4-undecanone] | 92
11 | C#CCCCCl [5-chloro-1-pentyne] | 15
12 | CCC(=O)CC(C)CC (stereo not drawn) [5-methyl-3-heptanone] | 43
13 | CCCCC(C)CCCC [5-methylnonane] | 37
14 | CCCCC(=O)CCCC [5-nonanone] | 60
15 | CCCCCC(=O)CCCCC [6-undecanone] | 88
16 | C=CCCCCC(C)C [7-methyl-1-octene] | 18
17 | C=CCCCCCCCCO [9-decen-1-ol] | 119
18 | CCCCCCC(C)c1ccccc1 (stereo not drawn) [(1-methylheptyl)benzene] | 100
19 | CCN(CC)c1ccccc1 [N,N-diethylaniline] | 88
20 | CCN(C=O)CC [N,N-diethylformamide] | 65
21 | CC(C)N(C=O)C(C)C [N,N-diisopropylformamide] | 75
22 | CN(C)CCCN [N,N-dimethyl-1,3-propanediamine] | 32
23 | CC(=O)N(C)C [N,N-dimethylacetamide] | 66

Row | SMILES | flash point [°C]
24 | CN(C)c1ccccc1 [N,N-dimethylaniline] | 75
25 | CCCCNC(C)=O [N-butylacetamide] | 115
26 | CCCCNc1ccccc1 [N-butylaniline] | 107
27 | CCN(C)CC [N-ethyl-N-methylethanamine] | -23
28 | CCNC(C)=O [N-ethylacetamide] | 106
29 | CCNC1CCCCC1 [N-ethylcyclohexanamine] | 45
30 | CN(CCO)CCO [N-methyldiethanolamine] | 137
31 | CC(C)(C)Nc1ccccc1 [N-tert-butylaniline] | 88
32 | CC(=O)OC(C)=O [aceticanhydride] | 49
33 | C=CC=O [acrolein] | -19
34 | C=CC(=O)O [acrylicacid] | 54
35 | C=CC#N [acrylonitrile] | -5
36 | C=CCO [allylalcohol] | 22
37 | C=CCOCC [allylethylether] | -20
38 | C=CCSCC [allylethylsulfide] | 16
39 | C=CCOC(=O)C(=C)C [allylmethacrylate] | 37
40 | C=CCOC(=O)CC [allylpropanoate] | 25
41 | C=CCOCCC [allylpropylether] | -5
42 | OCc1ccccc1 [benzylalcohol] | 93
43 | N#CCc1ccccc1 [benzylcyanide] | 101
44 | CCOCc1ccccc1 [benzylethylether] | 59
45 | ICc1ccccc1 [benzyliodide] | 97
46 | SCc1ccccc1 [benzylmercaptan] | 70

Row | SMILES | flash point [°C]
47 | C1CCC(C2CCCCC2)CC1 [bicyclohexyl] | 92
48 | CCCC(=O)OC(=O)CCC [butanoicanhydride] | 82
49 | C=CC(=O)OCCCC [butylacrylate] | 37
50 | CCCCN [butylamine] | -7
51 | CCCCc1ccccc1 [butylbenzene] | 50
52 | CCCCOC(=O)c1ccccc1 [butylbenzoate] | 107
53 | CCCCOC(=O)CCC [butylbutanoate] | 49
54 | CSCCl [chloromethylmethylsulfide] | 17
55 | C1CCCC1 [cyclopentane] | -37
56 | N#CC1CC1 [cyclopropanecarbonitrile] | 32
57 | CCNCC [diethylamine] | -23
58 | OCCOCCO [diethyleneglycol] | 124
59 | CCOC(=O)c1ccccc1C(=O)OCC [diethylphthalate] | 160
60 | CC(C)NC(C)C [diisopropylamine] | -7
61 | CSSC [dimethyldisulfide] | 10
62 | COC(=O)c1ccccc1C(=O)OC [dimethylphthalate] | 150
63 | C=CC(=O)OCC [ethylacrylate] | 8
64 | c1ccoc1 [furan] | -36
65 | CCCCCCC#N [heptanenitrile] | 58
66 | CCCCCC#N [hexanenitrile] | 47
67 | CCI [iodoethane] | -5

Continued, values first:

Row | flash point [°C] | SMILES
68 | 48 | CC1CCC(=O)CC1 [4-methylcyclohexanone]
69 | 86 | CCCC1CCC(=O)CC1 [4-propylcyclohexanone]
70 | -10 | C=CCCC(C)C [5-methyl-1-hexene]
71 | 78 | CCCNCCO [(2-hydroxyethyl)propylamine]
72 | 12 | C=CCC1CCCC1 [allylcyclopentane]
73 | 107 | CCCC(=O)OCc1ccccc1 [benzylbutanoate]
74 | 35 | BrC1CCCC1 [bromocyclopentane]
75 | 48 | CCCCC1CCCCC1 [butylcyclohexane]
76 | -5 | CCCCOCC [butylethylether]
77 | 49 | C=C(C)C(=O)OCCCC [butylmethacrylate]
78 | 12 | C[C@@H]1CCCC[C@@H]1C [cis-1,2-dimethylcyclohexane]
79 | -4 | C[C@@H]1CCC[C@@H]1C [cis-1,2-dimethylcyclopentane]
80 | 6 | C[C@@H]1CCC[C@H](C)C1 [cis-1,3-dimethylcyclohexane]
81 | -46 | C/C=C\CC [cis-2-pentene]
82 | -25 | CC/C=C\CC [cis-3-hexene]
83 | 14 | CC/C=C\CCCC [cis-3-octene]
84 | -33 | C/C=C\C(C)C [cis-4-methyl-2-pentene]
85 | 31 | CC(C)c1ccccc1 [cumene]
86 | 10 | O=C1CCC1 [cyclobutanone]
87 | 71 | OC1CCCCCC1 [cycloheptanol]
88 | 41 | SC1CCCCC1 [cyclohexanethiol]

Row | flash point [°C] | SMILES
89 | 68 | C=CC(=O)OC1CCCCC1 [cyclohexylacrylate]
90 | 98 | c1ccc(C2CCCCC2)cc1 [cyclohexylbenzene]
91 | 21 | COC1CCCCC1 [cyclohexylmethylether]
92 | 28 | C1CCCCCCC1 [cyclooctane]
93 | 88 | OC1CCCCCCC1 [cyclooctanol]
94 | 28 | O=CC1CCCC1 [cyclopentanecarboxaldehyde]
95 | 25 | SC1CCCC1 [cyclopentanethiol]
96 | 26 | O=C1CCCC1 [cyclopentanone]
97 | 12 | NC1CCCC1 [cyclopentylamine]
98 | 62 | OCC1CCCC1 [cyclopentylmethanol]
99 | 13 | CC(=O)C1CC1 [cyclopropylmethylketone]
100 | 100 | CCCCCCCCCCOC=O [decylformate]
101 | 24 | CCC(C)NC(C)CC (stereo not drawn) [di-sec-butylamine]
102 | 15 | CCC(C)OC(C)CC (stereo not drawn) [di-sec-butylether]
103 | 67 | CC(C)(C)SSC(C)(C)C [di-tert-butyldisulfide]
104 | 23 | C=CCSCC=C [diallylsulfide]
105 | 47 | CCCCNCCCC [dibutylamine]
106 | 93 | CCCCSSCCCC [dibutyldisulfide]
107 | 60 | CCCCSCCCC [dibutylsulfide]
108 | 46 | CC(C)CCOCCC(C)C [diisopentylether]
109 | 14 | COC(=O)OC [dimethylcarbonate]

Row | flash point [°C] | SMILES
110 | -36 | CSC [dimethylsulfide]
111 | 115 | c1ccc(Oc2ccccc2)cc1 [diphenylether]
112 | 66 | CCCSSCCC [dipropyldisulfide]
113 | 120 | CCCCCCCCCCCCOC(C)=O [dodecylacetate]
114 | -4 | CCOC(C)=O [ethylacetate]
115 | 18 | CCC1CCCCC1 [ethylcyclohexane]
116 | -4 | CCC1CCCC1 [ethylcyclopentane]
117 | 12 | CCOC(=O)CC [ethylpropanoate]
118 | 57 | CCCSSCC [ethylpropyldisulfide]
119 | 82 | CCC(=O)OCc1ccco1 [furfurylpropanoate]
120 | 40 | CCCCCCC=O [heptanal]
121 | 130 | CCCCCCC(=O)OC(=O)CCCCCC [heptanoicanhydride]
122 | 95 | CCCCCCCc1ccccc1 [heptylbenzene]
123 | 25 | CCCCCC=O [hexanal]
124 | 55 | CCCCCCOC(C)=O [hexylacetate]
125 | 44 | CCCCCCOC=O [hexylformate]
126 | 74 | Ic1ccccc1 [iodobenzene]
127 | 52 | IC1CCCC1 [iodocyclopentane]
128 | 38 | CC(C)COC(=O)C(C)C [isobutyl2-methylpropanoate]
